Here are results for 1 molecule from patent US11357748B2, “Methods for treating mendelian disorders of the epigenetic machinery” (THE JOHNS HOPKINS UNIVERSITY, priority 2014, dated 2022).

The subject of this data set is H3K4 trimethylation machinery (H3K4me3 indicator). Kind of data set: H3K4 trimethylation (H3K4me3) indicator reporter allele, FACS. The data set is classed as cell-based. From the text: An H3K4 trimethylation reporter was also created (FIG. 5B). This reporter is based on the H3 tail on one end and the TBP associated factor III (TAFIII) […] on the other end; the TAFIII […] only identifies and binds to trimethylated K4 on H3. When the H3K4 site gets trimethylated, the TAFIII […] can bind to the modified H3 tail and bring the two parts of the separated GFP in close proximity. The activity of the epigenetic modification system can be quantified through fluorescence.
Epigenetic reporter alleles were synthesized (OriGene, Rockville, Md.) using published sequences for component elements (Baird et al. (1999) Proc. Natl. Acad. Sci. 96:11241-6; Souslova et al. (2007) BMC Biotechnol. 7:37). Single nucleotide mutations were created using the QuickChange Lightening kit (Agilent Technologies Inc, Santa Clara, Calif.). […] FACS data were analyzed using FlowJo (Tree Star Inc, Ashland, Oreg.). […]
Epigenetic reporter systems were created that monitor either H4 acetylation or H3K4 trimethylation machinery activity in an effort to determine whether there is an ongoing activity deficiency in cells from Kmt2d^+/βGeo mice (FIG. 18A). Both reporter alleles encode halves of green fluorescent protein separated by a flexible linker region (Baird et al. (1999) Proc. Natl. Acad. Sci. 96: 11241-6) with a histone tail and a histone reader at the N- and C-termini, respectively. […]

For the molecule `CC(C)[C@H](C(=O)Nc1ccc(C(=O)NO)cc1)c1ccccc1` [AR-42, (S)—N-hydroxy-4-(3-methyl-2-phenylbutanamido)benzamide], the “H3K4me3 indicator response to increasing levels of drug” value (FIG. 18F) was “dose dependent response”. The cell numbers entry (at higher doses, FIG. 18F (red line)) is “decreased cell numbers”.
